From the NIST ThermoML archive (doi:10.1016/j.jct.2013.10.031)

Experiment: wn = mass fraction of the nth substance listed
Settings: Gas, Burnett expansion method

FCC(F)(F)F [1,1,1,2-tetrafluoroethane] + CCC
Settings	mass density [kg/m3]
272.14 K, 376.9 kPa, w2 = 0.4	12.2714
272.14 K, 486.9 kPa, w2 = 0.4	16.3457
275.01 K, 306 kPa, w2 = 0.6	8.178
275.01 K, 398.5 kPa, w2 = 0.6	10.8743
275.01 K, 514 kPa, w2 = 0.6	14.4598
275.02 K, 233.7 kPa, w2 = 0.6	6.1499
275.03 K, 233.5 kPa, w2 = 0.55	6.3604
275.04 K, 177.6 kPa, w2 = 0.55	4.7832
275.04 K, 259 kPa, w2 = 0.65	6.6072
275.04 K, 397.9 kPa, w2 = 0.55	11.2458
275.04 K, 513.5 kPa, w2 = 0.55	14.954
275.05 K, 134.8 kPa, w2 = 0.55	3.597
275.05 K, 197.5 kPa, w2 = 0.65	4.9688
275.05 K, 305.8 kPa, w2 = 0.55	8.4571
275.05 K, 338.2 kPa, w2 = 0.65	8.7857
275.06 K, 150.2 kPa, w2 = 0.65	3.7365
275.06 K, 438.6 kPa, w2 = 0.65	11.682
276.01 K, 525 kPa, w2 = 0.5	16.127
276.07 K, 240.8 kPa, w2 = 0.5	6.8235
276.07 K, 314.5 kPa, w2 = 0.5	9.08914
276.08 K, 138.3 kPa, w2 = 0.5	3.84563
276.08 K, 182.4 kPa, w2 = 0.5	5.12246
276.08 K, 408.6 kPa, w2 = 0.5	12.1069
276.09 K, 131.9 kPa, w2 = 0.4	3.96275
276.09 K, 173.8 kPa, w2 = 0.4	5.27854
276.09 K, 228.4 kPa, w2 = 0.4	7.03132
276.09 K, 299.1 kPa, w2 = 0.4	9.36594
276.09 K, 389.5 kPa, w2 = 0.4	12.4758
276.09 K, 503.4 kPa, w2 = 0.4	16.618
276.23 K, 613 kPa, w2 = 0.45	19.9443
276.24 K, 369.2 kPa, w2 = 0.45	11.24
276.25 K, 215.6 kPa, w2 = 0.45	6.3345
276.25 K, 282.9 kPa, w2 = 0.45	8.43787
276.25 K, 478.6 kPa, w2 = 0.45	14.9718
276.26 K, 163.8 kPa, w2 = 0.45	4.75547
278.98 K, 613.4 kPa, w2 = 0.55	18.0169
278.99 K, 431 kPa, w2 = 0.65	11.2429
279 K, 193.1 kPa, w2 = 0.65	4.7818
279 K, 253.6 kPa, w2 = 0.65	6.3584
279 K, 331.6 kPa, w2 = 0.65	8.4549
279 K, 555.1 kPa, w2 = 0.65	14.9493
279.04 K, 478.7 kPa, w2 = 0.55	13.5464
279.05 K, 201 kPa, w2 = 0.6	5.1513
279.05 K, 264.1 kPa, w2 = 0.6	6.8498
279.06 K, 152.4 kPa, w2 = 0.6	3.874
279.06 K, 345.5 kPa, w2 = 0.6	9.1083
279.06 K, 369.2 kPa, w2 = 0.55	10.1866
279.06 K, 448.9 kPa, w2 = 0.6	12.1114
279.06 K, 577.6 kPa, w2 = 0.6	16.1046
279.07 K, 163.6 kPa, w2 = 0.55	4.3324
279.07 K, 282.8 kPa, w2 = 0.55	7.6605
279.08 K, 215.4 kPa, w2 = 0.55	5.7608
280.01 K, 670.7 kPa, w2 = 0.4	22.729
280.02 K, 180.8 kPa, w2 = 0.4	5.41974
280.02 K, 237.8 kPa, w2 = 0.4	7.21933
280.02 K, 311.5 kPa, w2 = 0.4	9.61644
280.02 K, 405.9 kPa, w2 = 0.4	12.8096
280.02 K, 524.7 kPa, w2 = 0.4	17.0629
280.17 K, 150 kPa, w2 = 0.45	4.28073
280.17 K, 197.2 kPa, w2 = 0.45	5.70206
280.17 K, 436.6 kPa, w2 = 0.45	13.4767
280.18 K, 257.8 kPa, w2 = 0.45	7.59526
280.18 K, 336.4 kPa, w2 = 0.45	10.1172
280.18 K, 562.4 kPa, w2 = 0.45	17.9508
280.2 K, 176.2 kPa, w2 = 0.5	4.88417
280.2 K, 228 kPa, w2 = 0.5	6.50598
280.2 K, 295.2 kPa, w2 = 0.5	8.66625
280.2 K, 382.2 kPa, w2 = 0.5	11.5437
280.2 K, 490.7 kPa, w2 = 0.5	15.3768
280.2 K, 626.5 kPa, w2 = 0.5	20.4828
282.96 K, 514.9 kPa, w2 = 0.6	16.8632
282.98 K, 397.4 kPa, w2 = 0.6	10.4251
282.98 K, 629.9 kPa, w2 = 0.6	18.4329
282.99 K, 232 kPa, w2 = 0.6	5.8957
282.99 K, 301.9 kPa, w2 = 0.65	7.5146
282.99 K, 304.4 kPa, w2 = 0.6	7.8397
282.99 K, 353.3 kPa, w2 = 0.55	9.521
282.99 K, 510.2 kPa, w2 = 0.65	13.287
282.99 K, 592.4 kPa, w2 = 0.55	16.8344
283 K, 155.9 kPa, w2 = 0.55	4.0493
283 K, 176.1 kPa, w2 = 0.6	4.4337
283 K, 205.5 kPa, w2 = 0.55	5.3845
283 K, 230.2 kPa, w2 = 0.65	5.6511
283 K, 270 kPa, w2 = 0.55	7.1599
283 K, 393.8 kPa, w2 = 0.65	9.9922
283 K, 459.5 kPa, w2 = 0.55	12.6599
283 K, 653.6 kPa, w2 = 0.65	17.6674
283.01 K, 175 kPa, w2 = 0.65	4.2497
283.86 K, 174.7 kPa, w2 = 0.4	5.14203
283.87 K, 229.9 kPa, w2 = 0.4	6.84912
283.87 K, 301.6 kPa, w2 = 0.4	9.12315
283.88 K, 393.6 kPa, w2 = 0.4	12.1512
283.9 K, 510.3 kPa, w2 = 0.4	16.1858
283.94 K, 655.1 kPa, w2 = 0.4	21.5571
284.1 K, 397.4 kPa, w2 = 0.45	11.7333
284.1 K, 515.6 kPa, w2 = 0.45	15.6293
284.1 K, 662.3 kPa, w2 = 0.45	20.819
284.11 K, 176.2 kPa, w2 = 0.45	4.96426
284.11 K, 231.9 kPa, w2 = 0.45	6.61256
284.11 K, 304.4 kPa, w2 = 0.45	8.80835
284.11 K, 711.7 kPa, w2 = 0.5	21.5401
284.12 K, 555.4 kPa, w2 = 0.5	16.1702
284.13 K, 189.6 kPa, w2 = 0.5	5.13602
284.13 K, 249.8 kPa, w2 = 0.5	6.84131
284.13 K, 327.9 kPa, w2 = 0.5	9.11297
284.13 K, 428.3 kPa, w2 = 0.5	12.139
287 K, 196.2 kPa, w2 = 0.6	4.8811
287 K, 768.5 kPa, w2 = 0.65	20.9537
287.01 K, 258.3 kPa, w2 = 0.6	6.4904
287.01 K, 274.8 kPa, w2 = 0.65	6.7019
287.01 K, 311.4 kPa, w2 = 0.55	8.1881
287.01 K, 338.5 kPa, w2 = 0.6	8.6303
287.01 K, 406.7 kPa, w2 = 0.55	10.8878
287.01 K, 527.4 kPa, w2 = 0.55	14.4779
287.01 K, 571.1 kPa, w2 = 0.6	15.26
287.01 K, 603.8 kPa, w2 = 0.65	15.7575
287.01 K, 677.5 kPa, w2 = 0.55	19.2516
287.01 K, 730.6 kPa, w2 = 0.6	20.2911
287.02 K, 180 kPa, w2 = 0.55	4.6307
287.02 K, 209 kPa, w2 = 0.65	5.0401
287.02 K, 237.2 kPa, w2 = 0.55	6.1576
287.02 K, 359.7 kPa, w2 = 0.65	8.9115
287.02 K, 441.6 kPa, w2 = 0.6	11.4756
287.02 K, 467.8 kPa, w2 = 0.65	11.85
287.89 K, 145.9 kPa, w2 = 0.4	4.20423
287.89 K, 192.3 kPa, w2 = 0.4	5.60013
287.89 K, 253 kPa, w2 = 0.4	7.45965
287.89 K, 331.1 kPa, w2 = 0.4	9.93648
287.9 K, 431.5 kPa, w2 = 0.4	13.2354
287.9 K, 558 kPa, w2 = 0.4	17.6298
287.93 K, 714.8 kPa, w2 = 0.4	23.4815
288.06 K, 650.7 kPa, w2 = 0.45	19.9802
288.07 K, 171.7 kPa, w2 = 0.45	4.76422
288.07 K, 226.1 kPa, w2 = 0.45	6.34615
288.07 K, 297 kPa, w2 = 0.45	8.45356
288.07 K, 388.5 kPa, w2 = 0.45	11.2604
288.07 K, 505 kPa, w2 = 0.45	14.9994
288.07 K, 827.4 kPa, w2 = 0.45	26.6134
288.18 K, 242.5 kPa, w2 = 0.5	6.52495
288.18 K, 416.8 kPa, w2 = 0.5	11.5774
288.19 K, 184.1 kPa, w2 = 0.5	4.89841
288.19 K, 318.7 kPa, w2 = 0.5	8.69128
288.19 K, 541.6 kPa, w2 = 0.5	15.4214
288.19 K, 696.9 kPa, w2 = 0.5	20.5413
291 K, 851.2 kPa, w2 = 0.55	24.7999
291.01 K, 519.6 kPa, w2 = 0.55	14.0252
291.01 K, 669.4 kPa, w2 = 0.55	18.65
291.02 K, 399.8 kPa, w2 = 0.55	10.5472
291.03 K, 305.7 kPa, w2 = 0.55	7.9316
291.04 K, 168.3 kPa, w2 = 0.6	4.1049
291.04 K, 222.1 kPa, w2 = 0.6	5.4582
291.04 K, 232.6 kPa, w2 = 0.55	5.9647
291.04 K, 292.1 kPa, w2 = 0.6	7.2581
